Measurements as given in patent US20220280422A1 (Innovation for Success, LLC, priority 2021, published 2022).

Legend:
[1] = taken orally in pill form or capsule form; cited from earlier work
[2] = Dissolution of melatonin in liquid glycerin; type: physicochemical; details: at least 250 mg melatonin per milliliter glycerin
Procedure: At block 304, the method 300 includes combining melatonin with liquid glycerin, which is also termed glycerol and/or glycerine. The melatonin may be dry and/or powered, and is typically in a crystalized state. As noted above, in an exemplary embodiment, at least 250 mg of melatonin is added per milliliter of glycerin.
Next, at block 308 of the method 300, the melatonin and glycerin mixture is heated to approximately 76.6° C. (170° F.). Moreover, in some embodiments, the melatonin and glycerin mixture is stirred during the heating process.
As shown in block 404, first the method 400 includes mixing melatonin with liquid glycerin. The melatonin may be dry and/or powered, and is typically in a crystalized state. As noted above, in an exemplary embodiment, at least 250 mg of melatonin is added per milliliter of glycerin.
Next, at block 408 of the method 400, the melatonin and glycerin mixture is heated to approximately 76.6° C. (170° F.). Moreover, in some embodiments, the melatonin and glycerin mixture is stirred during the heating process.

[3] = cited from earlier work
CYP1A2 = target: T1, CYP1A2 (Homo sapiens, UniProt P05177); details: in vivo; cited from earlier work
T1 sequence (P05177 1-516): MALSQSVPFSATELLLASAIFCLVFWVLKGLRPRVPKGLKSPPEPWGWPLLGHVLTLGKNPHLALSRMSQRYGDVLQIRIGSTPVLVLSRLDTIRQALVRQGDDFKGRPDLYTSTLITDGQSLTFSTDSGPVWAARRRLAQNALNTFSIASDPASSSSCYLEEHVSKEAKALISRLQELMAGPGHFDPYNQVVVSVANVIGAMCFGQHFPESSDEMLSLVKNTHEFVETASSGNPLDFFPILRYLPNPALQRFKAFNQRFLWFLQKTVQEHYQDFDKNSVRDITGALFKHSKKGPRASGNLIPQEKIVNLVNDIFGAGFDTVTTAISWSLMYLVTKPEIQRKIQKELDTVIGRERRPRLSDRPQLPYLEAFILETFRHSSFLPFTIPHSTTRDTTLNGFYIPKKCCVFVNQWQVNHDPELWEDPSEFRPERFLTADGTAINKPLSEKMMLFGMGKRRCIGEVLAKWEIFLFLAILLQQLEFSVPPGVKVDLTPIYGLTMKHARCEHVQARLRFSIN

[4] = Recrystallization of melatonin on cooling in food-grade solvents; type: physicochemical; details: dissolved by heating then cooled
Text: During research of the dissolvable strip 100, several food-grade solvents were identified having a sufficient solubility of melatonin including glycerin, ethanol, oleic acid, and propylene glycol. When heated, each of these solvents is capable of dissolving crystalized melatonin. […] Whereas, as noted above, glycerin incorporates well into the strip 100 at levels up to about 2% to 5%, is compatible with the lipid shell 124, and prevents recrystallization of the melatonin contained by the lipid shell 124.

SMILES | fraction absorbed into the body [1] | dissolution of melatonin in glycerin ([2]; heated to approximately 76.6° C. and stirred) | dissolution of melatonin in glycerin ([2]; room temperature (25° C.)) | solubility in water [3] | melatonin in the blood removed during each pass through the liver (CYP1A2) | melatonin removed from the bloodstream by liver and kidneys (CYP1A2) | recrystallization of melatonin when cooled ([4]; solvent ethanol) | recrystallization of melatonin when cooled ([4]; solvent liquid glycerin) | recrystallization of melatonin when cooled ([4]; solvent oleic acid) | recrystallization of melatonin when cooled ([4]; solvent propylene glycol)
COc1ccc2[nH]cc(CCNC(C)=O)c2c1 [non-solubilized melatonin] | about 15% | – | – | – | – | – | – | – | – | –
COc1ccc2[nH]cc(CCNC(C)=O)c2c1 [melatonin, N-acetyl-5-methoxy tryptamine] | – | all of the melatonin dissolves | only a portion of the melatonin dissolves | only slightly soluble in water | 30%-50% | 30-50% | recrystallized | recrystallized in each of the solvents except for the liquid glycerin | recrystallized | recrystallized
